{
  "source": "patent US5079346A",
  "about": "“Gallium-labelled imaging agents” (priority 1990, dated 1992)",
  "key": {"[1]": {"assay": "Biodistribution in rats after an iv injection", "type": "in vivo, male Sprague Dawley rats", "settings": "for Biodistribution, Blood: blood assumed 7% of body weight; for Biodistribution, Muscle: muscle assumed 40% of body weight; for Brain/Blood: ratio", "protocol": "Biodistribution of [^67 Ga]BAT-TECH was studied in male Sprague Dawley rats (200-250 g) which were allowed access to food and water ad lib. Saline solution containing [^67 Ga]BAT-TECH in a volume of 0.2 ml was injected directly into a femoral vein. Rats were sacrified (at various time points, 2, 30 and 60 min., post injection) by cardiac excision under ether anesthesia. The organs of interest were removed and counted using a well gamma counter. Percent dose per organ was calculated by comparison of tissue counts to suitably diluted aliquots of injected material. Total activities of blood and muscle were calculated assuming that they are 7% and 40% of total body weight, respectively. Each time point consists of a group of three rats.\n2,9-Dimethyl-2,9-mercapto-5-(2-hydroxyphnyl)-4,7-diazadecane was labelled, and the biodistributino of the labelled compound measured, by analogous methods."}, "[2]": {"settings": "rats, cited from earlier work"}, "[3]": {"settings": "literature; cited from earlier work"}, "[4]": {"settings": "literature, cited from earlier work"}, "[5]": {"assay": "Lipid solubility (reverse phase HPLC, PRP-1 column)", "type": "physicochemical", "settings": "PRP-1, pH 7", "protocol": "At tracer concentrations, the aqueous chemistry has been studied using [^67 Ga] gallium citrate as the starting material. […] The ratio of ligand to ^67 Ga was determined to be […]. Presumably, under the conditions required for the preparation of the ^67 Ga complex, the cationic [^67 Ga(BAT-TECH)]^+ species is formed."}, "[6]": {"settings": "1-octanol/0.1 m phosphate", "description": "The partition coefficient of the [^67 Ga(BAT-TECH)]^+ complex was measured by mixing the compound with 3 g each of 1-octanol and buffer (pH 7.0 or 7.4, 0.1 M phosphate) in a test tube. This test tube was vortexed for 3 minutes at room temperature and then centrifuged for 5 minutes. Two weighed samples (0.5 g each) from the 1-octanol and buffer layers were counted in a well counter. The partition coefficient was determined by calculating the ratio of counts per minute/gram of octanol to that of buffer. Samples from the octanol layer were repartitioned until consistent partition coefficient values were obtained. The measurement was repeated three times."}, "[7]": {"settings": "iv, versus [^68 Ga](5-MeOSal)3 TAME"}},
  "note": "Values joined by “and” are separate entries in the source; they are usually repeats but may differ in a detail not shown here. Equal values may be shown once. Read-outs that look alike come from different tables or passages of the source.",
  "data": [
    {"smiles": "CC1(C)C[NH+]2CC(c3ccccc3O)[NH+]3CC(C)(C)[S][67Ga-]23[S]1", "note": "(stereo not drawn) [[^67 Ga]2,9-Dimethyl-2,9-Dimercapto-5-(2-hydroxyphenyl)-4,7-diazadecane]", "values": [
      {"measurement": "Biodistribution, Brain", "setting": "[1]; iv, 2 min", "value": ".026 ± .002 % dose/organ"},
      {"measurement": "Biodistribution, Heart", "setting": "[1]; iv, 2 min", "value": ".940 ± .094 % dose/organ"},
      {"measurement": "Biodistribution, Kidney", "setting": "[1]; iv, 2 min", "value": "5.677 ± .266 % dose/organ"},
      {"measurement": "Biodistribution, Liver", "setting": "[1]; iv, 2 min", "value": "20.93 ± 4.13", "unit": "% dose/organ"},
      {"measurement": "Biodistribution, Lung", "setting": "[1]; iv, 2 min", "value": "1.236 ± .155 % dose/organ"},
      {"measurement": "Biodistribution, Skin", "setting": "[1]; iv, 2 min", "value": ".137 ± .023 % dose/organ"},
      {"measurement": "Biodistribution, Spleen", "setting": "[1]; iv, 2 min", "value": ".431 ± .085 % dose/organ"},
      {"measurement": "Biodistribution, Blood", "setting": "[1]; iv, 2 min", "value": "11.240 ± .724 % dose/organ"},
      {"measurement": "Biodistribution, Muscle", "setting": "[1]; iv, 2 min", "value": "14.392 ± 2.91", "unit": "% dose/organ"},
      {"measurement": "Brain/Blood", "setting": "[1]; iv, 2 min", "value": ".028"},
      {"measurement": "Biodistribution, Brain", "setting": "[1]; iv, 30 min", "value": ".019 ± .001 % dose/organ"},
      {"measurement": "Biodistribution, Heart", "setting": "[1]; iv, 30 min", "value": ".380 ± .039 % dose/organ"},
      {"measurement": "Biodistribution, Kidney", "setting": "[1]; iv, 30 min", "value": "1.204 ± .080 % dose/organ"},
      {"measurement": "Biodistribution, Liver", "setting": "[1]; iv, 30 min", "value": "25.31 ± 1.09", "unit": "% dose/organ"},
      {"measurement": "Biodistribution, Lung", "setting": "[1]; iv, 30 min", "value": ".690 ± .481 % dose/organ"},
      {"measurement": "Biodistribution, Skin", "setting": "[1]; iv, 30 min", "value": ".079 ± .004 % dose/organ"},
      {"measurement": "Biodistribution, Spleen", "setting": "[1]; iv, 30 min", "value": ".155 ± .022 % dose/organ"},
      {"measurement": "Biodistribution, Blood", "setting": "[1]; iv, 30 min", "value": "2.823 ± .182 % dose/organ"},
      {"measurement": "Biodistribution, Muscle", "setting": "[1]; iv, 30 min", "value": "17.49 ± 1.37", "unit": "% dose/organ"},
      {"measurement": "Brain/Blood", "setting": "[1]; iv, 30 min", "value": ".073"}
    ]},
    {"smiles": "COc1ccc2c(c1)C=NCC1(C)CN=Cc3cc(OC)ccc3[O][68Ga]([O]2)[O]c2ccc(OC)cc2C=NC1", "note": "[[^68 Ga](5-MeOSal)3 TAME, Gallium-68 1,1,1-tris (5-methoxysalicylaldimino-methyl)ethane]", "values": [
      {"measurement": "heart uptake", "setting": "[2]; 1 min postinjection", "value": 0.97, "unit": "% dose/whole heart"},
      {"measurement": "heart uptake", "setting": "[2]; 30 min postinjection", "value": 0.23, "unit": "% dose/whole heart"},
      {"measurement": "heart uptake", "setting": "[2]; 60 min postinjection", "value": 0.14, "unit": "% dose/whole heart"}
    ]},
    {"smiles": "CNC1=NN=CC(C)=NN=C(NC)[S][Cu][S]1", "note": "[Cu(PTSM), copper-labeled pyruvaldehyde bis(N4-methylthiosemicarbazone)]", "values": [
      {"measurement": "lipid solubility", "setting": "[3]", "value": "neutral and lipid-soluble"},
      {"measurement": "intracellular stability", "setting": "[4]; after interacting with sulfurhydryl groups", "value": "decomposes intracellularly"},
      {"measurement": "passage through the cell membrane / blood-brain barrier", "setting": "[4]; after intravenous injection", "value": "passes through the cell membrane, including the intact blood-brain barrier"}
    ]},
    {"smiles": "CCC1(CC)C[NH+]2CC3(CCCCC3)[NH+]3CC(CC)(CC)[S][67Ga-]23[S]1", "note": "(stereo not drawn) [[^67 Ga]BAT-TECH]", "values": [
      {"measurement": "lipid solubility", "setting": "[5]", "value": "very lipid-soluble"},
      {"measurement": "blood and lung washout", "setting": "[1]; in words", "value": "rapid blood and lung washout"},
      {"measurement": "myocardial uptake", "setting": "[1]; in words", "value": "fast myocardial uptake"},
      {"measurement": "uptake in the liver, washout", "setting": "[1]; iv", "value": "significant uptake in the liver which does not wash out with time"},
      {"measurement": "Biodistribution, Brain", "setting": "[1]; iv, 2 min", "value": "0.02 ± 0.004", "unit": "% dose/organ"},
      {"measurement": "Biodistribution, Heart", "setting": "[1]; iv, 2 min", "value": "1.68 % dose/organ and 1.68 ± 0.12 % dose/organ"},
      {"measurement": "Biodistribution, Kidney", "setting": "[1]; iv, 2 min", "value": "6.94 ± 0.31", "unit": "% dose/organ"},
      {"measurement": "Biodistribution, Liver", "setting": "[1]; iv, 2 min", "value": "21.52 ± 1.11", "unit": "% dose/organ"},
      {"measurement": "Biodistribution, Lung", "setting": "[1]; iv, 2 min", "value": "2.07 ± 0.07", "unit": "% dose/organ"},
      {"measurement": "Biodistribution, Skin", "setting": "[1]; iv, 2 min", "value": "5.44 ± 1.65", "unit": "% dose/organ"},
      {"measurement": "Biodistribution, Spleen", "setting": "[1]; iv, 2 min", "value": "0.50 ± 0.06", "unit": "% dose/organ"},
      {"measurement": "Biodistribution, Blood", "setting": "[1]; iv, 2 min", "value": "10.18 ± 0.30", "unit": "% dose/organ"},
      {"measurement": "Biodistribution, Muscle", "setting": "[1]; iv, 2 min", "value": "13.89 ± 3.21", "unit": "% dose/organ"},
      {"measurement": "Biodistribution, Brain", "setting": "[1]; iv, 30 min", "value": "0.01 ± 0.001", "unit": "% dose/organ"},
      {"measurement": "Biodistribution, Heart", "setting": "[1]; iv, 30 min", "value": "0.52 ± 0.08", "unit": "% dose/organ"},
      {"measurement": "Biodistribution, Kidney", "setting": "[1]; iv, 30 min", "value": "2.00 ± 0.10", "unit": "% dose/organ"},
      {"measurement": "Biodistribution, Liver", "setting": "[1]; iv, 30 min", "value": "33.54 ± 4.42", "unit": "% dose/organ"},
      {"measurement": "Biodistribution, Lung", "setting": "[1]; iv, 30 min", "value": "0.46 ± 0.09", "unit": "% dose/organ"},
      {"measurement": "Biodistribution, Skin", "setting": "[1]; iv, 30 min", "value": "7.56 ± 1.60", "unit": "% dose/organ"},
      {"measurement": "Biodistribution, Spleen", "setting": "[1]; iv, 30 min", "value": "0.15 ± 0.009", "unit": "% dose/organ"},
      {"measurement": "heart uptake", "setting": "[1]; iv, 30 min", "value": 0.52, "unit": "% dose/g"},
      {"measurement": "Biodistribution, Blood", "setting": "[1]; iv, 30 min", "value": "3.58 ± 0.08", "unit": "% dose/organ"},
      {"measurement": "Biodistribution, Muscle", "setting": "[1]; iv, 30 min", "value": "21.14 ± 2.18", "unit": "% dose/organ"},
      {"measurement": "Biodistribution, Brain", "setting": "[1]; iv, 60 min", "value": "0.01 ± 0.002", "unit": "% dose/organ"},
      {"measurement": "Biodistribution, Heart", "setting": "[1]; iv, 60 min", "value": "0.26 ± 0.02", "unit": "% dose/organ"},
      {"measurement": "Biodistribution, Kidney", "setting": "[1]; iv, 60 min", "value": "1.06 ± 0.14", "unit": "% dose/organ"},
      {"measurement": "Biodistribution, Liver", "setting": "[1]; iv, 60 min", "value": "46.41 ± 2.39", "unit": "% dose/organ"},
      {"measurement": "Biodistribution, Lung", "setting": "[1]; iv, 60 min", "value": "0.37 ± 0.009", "unit": "% dose/organ"},
      {"measurement": "Biodistribution, Skin", "setting": "[1]; iv, 60 min", "value": "5.78 ± 0.92", "unit": "% dose/organ"},
      {"measurement": "Biodistribution, Spleen", "setting": "[1]; iv, 60 min", "value": "0.11 ± 0.001", "unit": "% dose/organ"},
      {"measurement": "Biodistribution, Blood", "setting": "[1]; iv, 60 min", "value": "4.54 ± 1.10", "unit": "% dose/organ"},
      {"measurement": "Biodistribution, Muscle", "setting": "[1]; iv, 60 min", "value": "10.79 ± 1.85", "unit": "% dose/organ"},
      {"measurement": "heart uptake", "setting": "[1]; iv, 1 hour", "value": 0.26, "unit": "% dose/g"},
      {"measurement": "heart to blood ratio", "setting": "[1]; [7]", "value": "comparable to or superior to those reported for [^68 Ga](5- MeOSal)3 TAME"},
      {"measurement": "heart to lung ratio", "setting": "[1]; [7]", "value": "comparable to or superior to those reported for [^68 Ga](5- MeOSal)3 TAME"},
      {"measurement": "partition coefficient (1-octanol/buffer)", "setting": "[6]; pH 7", "value": "147±5.18"},
      {"measurement": "partition coefficient (1-octanol/buffer)", "setting": "[6]; pH 7.4", "value": "72.3±3.47"}
    ]}
  ]
}
